≈ marks a conversion by molar mass, not a printed value.
Columns and labels:
[1] = test system: S. aureus ATCC 33591 (MRSA); assay: murine neutropenic thigh model; type: in vivo; conditions: two highest dosages; MRSA ATCC 33591, challenge 1.2×10^3 CFU; FIG. 5
Experimental: (§1) The in vivo activity of Example 1 in the mouse neutropenic thigh model (Andes and Craig. Antimicrob Agents Chemother. 2002, 46:1665-1670) was determined against seven bacterial strains including susceptible Escherichia coli and Klebsiella pneumoniae; multi-drug resistant (MDR) clinical isolates of E. coli and K. pneumoniae that display resistance to multiple antibiotics (including AGs); MRSA; and two K. pneumoniae carbapenemases (KPC)-expressing strains (see Table 5). For this efficacy model, groups of six CD-1 mice were rendered neutropenic by two intraperitoneal injections of cyclophosphamide. The first injection was 150 mg/kg three days prior to infection (day −4), and the second injection was 100 mg/kg one day prior to infection (day −1). On study day 0, animals were inoculated intramuscularly (0.1 ml) with a known number of colony forming units (CFU) of the specified bacterial strain (ATCC 25922, AECO 1003, ATCC 43816, AKPN 1073, AKPN 1109, ATCC 33591 or ASMA 1030), tailored to the virulence of each strain in the model to maximize bacterial load while avoiding mortality in the untreated control arms. Antibiotics were administered via subcutaneous injection at 2 and 14 hours after bacterial challenge. At 26 hours, infected thigh tissue was harvested, homogenized, and plated to count CFU. […]

[2] = test system: K. pneumoniae AKPN 1073 (MDR, AG-resistant clinical isolate); assay: murine neutropenic thigh model; type: in vivo; conditions: two highest dosages; AKPN 1073, challenge 1.3×10^4 CFU; FIG. 3
Experimental: as §1

[3] = test system: multidrug-resistant (MDR) K. pneumoniae isolates (n = 102); assay: MIC by microdilution, clinical isolates; type: cell-based
Experimental: (§2) The in vitro activity of representative antibacterial aminoglycoside compounds against a collection of 102 K. pneumoniae clinical isolates collected from January 2006 to October 2007 at the University of Pittsburgh Medical Center, and three Cleveland institutions including University Hospitals Case Medical Center, the Cleveland Clinic, and the Louis Stokes Department of Veterans Affairs Medical Center was analyzed. The 102 K. pneumoniae isolates were selected based on a multidrug-resistant (MDR) phenotype (i.e., resistance to >3 antibiotic classes). Twenty-five isolates were KPC carbapenemase producing (KPC-Kp), and were part of a previous study where the β-lactamase background and clonality were characterized (see Endimiani, A., A. M. Hujer, F. Perez, C. R. Bethel, K. M. Hujer, J. Kroeger, M. Oethinger, D. L. Paterson, M. D. Adams, M. R. Jacobs, D. J. Diekema, G. S. Hall, S. G. Jenkins, L. B. Rice, F. C. Tenover, and R. A. Bonomo. 2009. Characterization of blaKPC-containing Klebsiella pneumoniae isolates detected in different institutions in the Eastern USA. J Antimicrob Chemother 63:427-37).
(§3) Minimum inhibitory concentrations (MICs) were performed by microdilution method using cation-adjusted Mueller-Hinton broth, according to the Clinical and Laboratory Standards Institute (CLSI) criteria (see CLSI. 2006. Methods for dilution antimicrobial susceptibility tests for bacteria that grow aerobically; approved standard-Seventh edition. Clinical and Laboratory Standard Institute, Wayne, Pa. CLSI document M7-A7). These MIC assays were conducted following the same protocol as set forth in Example 110. […] The following ATCC control strains were used: Escherichia coli ATCC 25922, Pseudomonas aeruginosa ATCC 27853, and K. pneumoniae ATCC 700603.

[4] = test system: K. pneumoniae producing KPC (n = 25); assay: MIC by microdilution, clinical isolates; type: cell-based; conditions: Klebsiella pneumoniae, K. pneumoniae producing KPC (n = 25)
Experimental: as §2, §3

[5] = test system: E. coli AECO 1003 (MDR, AG-resistant clinical isolate); assay: murine neutropenic thigh model; type: in vivo; conditions: highest dosage; AECO 1003, challenge 1.5×10^3 CFU; FIG. 2
Experimental: as §1

[6] = test system: E. coli ATCC 25922; assay: murine septicemia model of infection; type: in vivo; conditions: mice, single SC or IV dose 1 hour after IP challenge, mortality for 7 days; ED50 values are mg/kg
Experimental: (§4) Two models were run on each compound, using E. coli and P. aeruginosa QC bacterial strains. Both studies employed the same design. […] At 1 hour after bacterial challenge, the mice received a single SC or IV dose of vehicle or test substance to assess in vivo anti-infective activity. Mortality was recorded once daily for 7 days after bacterial inoculation.

[7] = test system: P. aeruginosa ATCC 27853; assay: murine septicemia model of infection; type: in vivo; conditions: mice, single SC or IV dose 1 hour after IP challenge, mortality for 7 days; ED50 values are mg/kg
Experimental: as §4

[8] = test system: K. pneumoniae AKPN 1109 (KPC-expressing clinical isolate); assay: murine neutropenic thigh model; type: in vivo; conditions: highest test dosage; AKPN 1109, challenge 8.3×10^5 CFU; FIG. 4
Experimental: (§5) The in vivo activity of Example 1 in the mouse neutropenic thigh model (Andes and Craig. Antimicrob Agents Chemother. 2002, 46:1665-1670) was determined against seven bacterial strains including susceptible Escherichia coli and Klebsiella pneumoniae; multi-drug resistant (MDR) clinical isolates of E. coli and K. pneumoniae that display resistance to multiple antibiotics (including AGs); MRSA; and two K. pneumoniae carbapenemases (KPC)-expressing strains (see Table 5). For this efficacy model, groups of six CD-1 mice were rendered neutropenic by two intraperitoneal injections of cyclophosphamide. The first injection was 150 mg/kg three days prior to infection (day −4), and the second injection was 100 mg/kg one day prior to infection (day −1). On study day 0, animals were inoculated intramuscularly (0.1 ml) with a known number of colony forming units (CFU) of the specified bacterial strain (ATCC 25922, AECO 1003, ATCC 43816, AKPN 1073, AKPN 1109, ATCC 33591 or ASMA 1030), tailored to the virulence of each strain in the model to maximize bacterial load while avoiding mortality in the untreated control arms. Antibiotics were administered via subcutaneous injection at 2 and 14 hours after bacterial challenge. At 26 hours, infected thigh tissue was harvested, homogenized, and plated to count CFU. Untreated control animals were harvested at 2 hours post-infection to assess the initial bacterial load and at 26 hours post-infection to measure growth in the absence of antibiotic treatment.

[9] = test system: E. coli ATCC 25922 (susceptible); assay: murine neutropenic thigh model; type: in vivo
Experimental: as §5

[10] = test system: K. pneumoniae ATCC 43816 (susceptible); assay: murine neutropenic thigh model; type: in vivo
Experimental: as §5

[11] = test system: seven bacterial strains; assay: murine neutropenic thigh model, statements over all strains; type: in vivo
Experimental: as §5

[12] = test system: P. aeruginosa ATCC 27853 (APAE001); assay: MIC assay, CLSI broth microdilution; type: cell-based; conditions: Pseudomonas aeruginosa; Table 1; APAE001 is ATCC27853; read-out: MIC APAE001
Outline: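 Test compounds were diluted two-fold at 2× strength in Mueller Hinton Broth, then combined 1:1 with saline-suspended bacteria from an overnight agar colony to reach 5×10^5 CFU/mL. Incubation followed at 35° C. for 20 hours in ambient air, per CLSI reference methods.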

## CN[C@@H]1[C@@H](O)[C@@H](O[C@@H]2[C@@H](O)[C@H](O[C@H]3OC(CNCCO)=CC[C@H]3N)[C@@H](N)C[C@H]2NC(=O)[C@@H](O)CCN)OC[C@]1(C)O [Example 1, 6′-(2-Hydroxy-ethyl)-1-(4-amino-2(S)-hydroxy-butyryl)-sisomicin]
[1]
  bacterial load after 24 hours of treatment versus initial bacterial load: reduced to below the initial bacterial load
[2]
  bacterial load after 24 hours of treatment versus initial bacterial load: reduced to below the level of the initial bacterial load
[3]; Klebsiella pneumoniae, Total MDR K. pneumoniae isolates (n = 102), read-out: MIC50
  MIC50: 0.5 µg/mL (≈ 0.844 µM)
[3]; Klebsiella pneumoniae, Total MDR K. pneumoniae isolates (n = 102), read-out: MIC90
  MIC90: 1 µg/mL (≈ 1.69 µM)
[3]; Klebsiella pneumoniae, all MDR and KPC-Kp strains, read-out: MICs for all strains
  MIC: ≤ 4 µg/mL
[3]; MDR and KPC-Kp strains
  MIC90 lower than that of amikacin: at least 5 twofold dilutions
[4]; read-out: MIC50
  MIC50: 0.5 µg/mL (≈ 0.844 µM)
[4]; read-out: MIC90
  MIC90: 1 µg/mL (≈ 1.69 µM)
[5]
  bacterial titer after 24 hours of treatment versus initial bacterial load: reduced to below the initial bacterial load
[6]
  ED50/MIC E. Coli: <2
[7]
  ED50/MIC P. aeruginosa: 4
[8]
  bacterial load after 24 hours of treatment versus initial bacterial load: reduced back to the level of the initial bacterial load
[9]
  ED50/MIC: 8.4
[10]
  ED50/MIC: 7.4
[11]; all 7 strains
  bacterial titers versus initial bacterial load (static level): reducing bacterial titers back to or below the initial bacterial load
[11]; gentamicin resistant strains
  ED50 against gentamicin resistant strains: efficacious
[11]; in words
  ratio of in vivo efficacy to in vitro activity (ED50/MIC): comparable to that of gentamicin
[11]; strains susceptible to gentamicin, in words
  in vivo efficacy (ED50) against strains susceptible to gentamicin: comparable to gentamicin
[12]
  MIC: 1 to 16 µg/mL (≈ 1.69 to 27 µM)

From patent US20190374563A1, “TREATMENT OF KLEBSIELLA PNEUMONIAE INFECTIONS WITH ANTIBACTERIAL AMINOGLYCOSIDE COMPOUNDS” (Achaogen, Inc., priority 2009, published 2019)
